How the values were obtained:
[1] = Modulated differential scanning calorimetry of tissue scaffolds; assay type: physicochemical
Protocol: Following crosslinking, five specimens (n=5) from the 7 treatment types were rinsed in DI water and placed in an aluminum pan with a hermetic lid. The treatment types were EDC/NHS, untreated, 15 minutes crosslinking with 3 mM genipin, 4 hours crosslinking with 3 mM genipin, 8 hours crosslinking with 3 mM genipin, 24 hours crosslinking with 3 mM genipin, and 24 hours crosslinking with 10 mM genipin. The 10 mM treatment type was added to verify that increasing the genipin concentration would further increase the amount of crosslinking that occurred. The reference pan consisted of an aluminum pan containing […] of double distilled water and sealed with a hermetic lid. Each specimen was then subjected to modulated differential scanning calorimetry using a Q2000 DSC (TA Instruments, New Castle, DE, USA) to raise the temperature from 5° C. to 120° C. at a rate of 5° C. per minute with a modulation of ±0.64° C. every 80 s. The mean denaturation temperature is reported.

integrin β1 = settings: chondrocytes; cited from earlier work
[2] = system: L929 mouse connective tissue fibroblasts; assay: Cell proliferation reagent WST-1 cell viability assay on scaffolds; assay type: cell-based; settings: scaffolds crosslinked with 3 mM genipin
Protocol: L-929 mouse fibroblast cells were obtained from ATCC (Manassas, VA). They were cultured in EMEM (ATCC, Manassas, VA, USA) supplemented with 10% (v/v) horse serum (Sigma-Aldrich, St. Louis, MO, USA) and 200 U mL^−1 penicillin-streptomycin (Sigma-Aldrich, St. Louis, MO, USA) solution in an incubator at 37° C. and 5% CO2. 1 mL of 3×10^4 cell/mL cell solution was plated on each scaffold and allowed to grow for 1, 3, 7, or 10 days with fresh media being replaced every […].
Cell proliferation reagent WST-1 (Roche Diagnostics Corporation, Indianapolis, IN, USA) was used to evaluate the biocompatibility of the scaffolds. The WST-1 assay works via the use of tetrazolium salts. The salts were added to wells containing cells and the tissue discs. The tetrazolium salts were then cleaved to formazan by mitochondrial dehydrogenase activity. This correlates to the number of metabolically active cells. The resulting formazan was quantified using UV-vis absorbance measurements. […] After gentle mixing, 100 μL was removed from each well and absorbance readings were acquired using a Tecan Safire II plate reader. The resulting values were then calculated relative to the absorbance found on the untreated control scaffold. […]

Denaturation temperature of tissue scaffold ([1]; 15 minutes of genipin crosslinking, 3 mM, vs untreated): significantly increases
Denaturation temperature of tissue scaffold ([1]; 24 hours of crosslinking, 3 mM genipin): significant increase
Denaturation temperature of tissue scaffold ([1]; higher genipin concentration (10 mM vs 3 mM), 24 hours): significantly increased
Compound: COC(=O)C1=CO[C@@H](O)[C@@H]2C(CO)=CC[C@H]12 [genipin, methyl (1S,2R,6S)-2-hydroxy-9-(hydroxymethyl)-3-oxabicyclo[4.3.0]nona-4,8-diene-5-carboxylate]
mRNA expression of integrin β1 (integrin β1): halved
Cytotoxicity (biocompatibility results) [2]: not cytotoxic

From patent US20250041476A1, “ENHANCED PERFORMANCE SOLUTION FOR TISSUE GRAFTS” (The Curators of the University of Missouri, priority 2020, published 2025)
